One may read the IC50 as the concentration needed to halve the response being measured.

For the test, the target named is skeletal myofibrils (myosin ATPase activity). Put plainly: Skeletal Myofibril ATPase Assay. It counts as biochemical. As to conditions: PK-LDH coupled, absorbance at 340 nm. On the procedure:
Overview: Myosin ATPase activity is assessed by using a coupled reaction system, in which ADP generated by the myosin ATPase function is coupled to the disappearance of NADH through the pyruvate kinase/lactate dehydrogenase (PK-LDH) system. Myosin ATPase activity produces ADP, which is used as a substrate for PK to produce pyruvate and regenerate ATP. The pyruvate is then used as a substrate by LDH to oxidize NADH to NAD+. The rate of the reaction is monitored through the time-dependent disappearance of NADH using absorbance at 340 nm. Inhibition of ATPase activity by the assayed compounds is indicated by a reduced rate of NADH loss, relative to vehicle-treated controls, over the experimental time window. To assess the selectivity of the assayed compounds for skeletal myofibrils, the compounds are counter-screened in cardiac myofibrils.
Materials: The following stock solutions and reagents were used in the Skeletal Myofibril ATPase Assay:
Stock Solutions of pCa buffer. Combine PIPES, CaCl2, and EGTA solutions with 70 mL of water. Adjust pH to 7.0 and bring final volume to 100 mL.
Skeletal Myofibril ATPase Assay Procedure: BSA, ATP, NADH, PEP, and DTT solutions were thawed at room temperature, then transferred to ice. Pellet-frozen myofibrils (approximately twice the required volume) were transferred into a sufficiently large tube and capped. Myofibrils were thawed by rolling in a water bath for approximately 15 min at room temperature and cooled on ice. Buffers A and B were prepared by adjusting volumes as necessary for required number of wells and stored on ice. 0.5 μL of the compounds to be assayed were added into wells of a 384-well plate. Buffers A and B were mixed by inversion immediately prior to use, then 25 μL of each was dispensed using a Multidrop dispenser (Buffer A first, then Buffer B). The absorbance within the wells was measured at 340 nm, using a kinetic protocol in which the wells are read every 1.5-2 min for 1 h. The reaction rate was qualitatively assessed by subtracting the minimum absorbance value from the maximum value for each well, using either the SoftMax Pro plate reader software or a spreadsheet program such as Excel. Using GraphPad Prism 8.0, the data was normalized, with 100% activity defined as the absorbance change in the 1% DMSO vehicle wells and 0% assigned to no change in absorbance over the course of the experiment. The normalized data were fit to a variable-slope four-parameter logistic model, constraining the bottom to be 0 or greater. Compounds of Table 1 to 4 were tested and results of the assay appear in Table 5 herein. A=IC50 is less than or equal to 10 μM; B=IC50 is greater than 10 μM and less than 100 μM; C=IC50 is greater than 100 μM; […].
Take `Cc1cc(O)c(Cn2nc(-c3cnc(OCC(F)(F)F)nc3)ccc2=O)cn1` [Compound 86, 2-((4-hydroxy-6-methylpyridin-3-yl)methyl)-6-(2-(2,2,2-trifluoroethoxy)pyrimidin-5-yl)pyridazin-3(2H)-one]: the half-maximal inhibitory concentration (IC50) is > 100 µM.

Consider `Cc1ncc(Cn2nc(-c3cnc(OCC(F)(F)F)nc3)ccc2=O)cc1Cl` [Compound 87, 2-((5-chloro-6-methylpyridin-3-yl)methyl)-6-(2-(2,2,2-trifluoroethoxy)pyrimidin-5-yl)pyridazin-3(2H)-one], for which the IC50 is < 10 µM.

Take `O=c1ccc(-c2cnc(OCC(F)(F)F)nc2)nn1Cc1nc(-c2ccc(F)cc2)no1` [Compound 88, 2-((3-(4-fluorophenyl)-1,2,4-oxadiazol-5-yl)methyl)-6-(2-(2,2,2-trifluoroethoxy)pyrimidin-5-yl)pyridazine-3(2H)-one]: the half-maximal inhibitory concentration (IC50) is < 10 µM.

For the compound `O=c1ccc(-c2cnc(OCC3(F)COC3)nc2)nn1Cc1nc(-c2ccccc2)no1` [Compound 91], the concentration for half-maximal inhibition (IC50) was < 10 µM.

As to `O=c1ccc(-c2cnc(OCC3(F)COC3)nc2)nn1Cc1nnc(-c2ccccc2)s1` [Compound 92, 6-(2-((3-fluorooxetan-3-yl)methoxy)pyrimidin-5-yl)-2-((5-phenyl-1,3,4-thiadiazol-2-yl)methyl)pyridazin-3(2H)-one], the IC50 is < 10 µM.

On to `O=c1ccc(-c2cnc(OCC(F)(F)F)nc2)nn1Cc1nnc(-c2ccccc2)s1` [Compound 94, 2-((5-phenyl-1,3,4-thiadiazol-2-yl)methyl)-6-(2-(2,2,2-trifluoroethoxy)pyrimidin-5-yl)pyridazin-3(2H)-one], for which the half-maximal inhibitory concentration (IC50) is < 10 µM.

`O=c1ccc(-c2cnc(OCC(F)(F)F)nc2)nn1Cc1nnc(N2CCCCC2)s1` [Compound 95, 2-((5-(piperidin-1-yl)-1,3,4-thiadiazol-2-yl)methyl)-6-(2-(2,2,2-trifluoroethoxy)pyrimidin-5-yl)pyridazin-3(2H)-one]: the IC50 was < 10 µM.

Regarding `O=c1ccc(-c2cnc(OCC(F)(F)F)nc2)nn1Cc1ccc2[nH]ncc2c1` [Compound 96, 2-((1H-indazol-5-yl)methyl)-6-(2-(2,2,2-trifluoroethoxy)pyrimidin-5-yl)pyridazin-3(2H)-one], the IC50 was < 10 µM.

With `O=c1ccc(-c2cnc(OCCOC(F)(F)F)nc2)nn1Cc1cncc(F)c1` [Compound 97, 2-((5-fluoropyridin-3-yl)methyl)-6-(2-(2-(trifluoromethoxy)ethoxy)pyrimidin-5-yl)pyridazine-3(2H)-one], the IC50 is < 10 µM.

As to `CCc1ncc(Cn2nc(-c3cnc(OCC(F)(F)F)nc3)ccc2=O)s1` [Compound 99, 2-((2-ethylthiazol-5-yl)methyl)-6-(2-(2,2,2-trifluoroethoxy)pyrimidin-5-yl)pyridazine-3(2H)-one], the IC50 was < 10 µM.

As for `O=c1ccc(-c2cnc(OCC(F)(F)F)nc2)nn1Cc1cnc(C2CC2)s1` [Compound 100, 2-((2-cyclopropylthiazol-5-yl)methyl)-6-(2-(2,2,2-trifluoroethoxy)pyrimidin-5-yl)pyridazine-3(2H)-one], the IC50 is < 10 µM.

As to `Cc1cncc(Cn2nc(-c3cnc(OCC(F)(F)F)nc3)ccc2=O)c1` [Compound 101, 2-((5-methylpyridin-3-yl)methyl)-6-(2-(2,2,2-trifluoroethoxy)pyrimidin-5-yl)pyridazine-3(2H)-one], the IC50 is < 10 µM.

Consider `CSCCOc1ncc(-c2ccc(=O)n(Cc3cncc(F)c3)n2)cn1` [Compound 102], for which the IC50 is < 10 µM.

Turning to `O=c1ccc(-c2cnc(OCC3COC3)nc2)nn1Cc1cncc(F)c1` [Compound 103, 2((5-fluoropyridin-3-yl)methyl)-6-(2-(oxetan-3-ylmethoxy)pyrimidin-5-yl)pyridazine-3(2H)-one], the IC50 was < 10 µM.

In the case of `CC(C)(C)COc1ncc(-c2ccc(=O)n(Cc3cncc(F)c3)n2)cn1` [Compound 104, 2((5-fluoropyridin-3-yl)methyl)-6-(2-(neopentyloxy)pyrimidin-5-yl)pyridazine-3(2H)-one], the half-maximal inhibitory concentration (IC50) was < 10 µM.

`O=c1ccc(-c2cnc(OCC(F)(F)F)nc2)nn1Cc1cnc(C(F)F)s1` [Compound 105]: the IC50 is < 10 µM.

In the case of `O=c1ccc(-c2cnc(OCC(F)F)nc2)nn1Cc1cncc(F)c1` [Compound 106, 6-(2-(2,2-difluoroethoxy)pyrimidin-5-yl)-2-((5-fluoropyridin-3-yl)methyl)pyridazine-3(2H)-one], the IC50 was < 10 µM.

Consider `O=c1ccc(-c2cnc(OCc3cncc(F)c3)nc2)nn1Cc1cncc(F)c1` [Compound 107, 6-(2-((5-fluoropyridin-3-yl)methoxy)pyrimidin-5-yl)-2-((5-fluoropyridin-3-yl)methyl)pyridazin-3(2H)-one], for which the concentration for half-maximal inhibition (IC50) was > 100 µM.

Turning to `CSCOc1ncc(-c2ccc(=O)n(Cc3cncc(F)c3)n2)cn1` [Compound 108, 2-((5-fluoropyridin-3-yl)methyl)-6-(2-((methylthio)methoxy)pyrimidin-5-yl)pyridazine-3(2H)-one], the IC50 was < 10 µM.

As to `CSCc1ncc(Cn2nc(-c3cnc(OCC(F)(F)F)nc3)ccc2=O)s1` [Compound 109, 2-((2-((methylthio)methyl)thiazol-5-yl)methyl)-6-(2-(2,2,2-trifluoroethoxy)pyrimidin-5-yl)pyridazine-3(2H)-one], the half-maximal inhibitory concentration (IC50) was < 10 µM.

As to `CC(C)COc1ncc(-c2ccc(=O)n(Cc3cncc(F)c3)n2)cn1` [Compound 110, 2-((5-fluoropyridin-3-yl)methyl)-6-(2-isobutoxypyrimidin-5-yl)pyridazine-3(2H)-one], the IC50 is < 10 µM.

Turning to `CSc1cncc(Cn2nc(-c3cnc(OCC(F)(F)F)nc3)ccc2=O)c1` [Compound 111], the concentration for half-maximal inhibition (IC50) is < 10 µM.

For the compound `CCCOc1ncc(-c2ccc(=O)n(Cc3cnc(CC)s3)n2)cn1` [Compound 112, 2-((2-ethylthiazol-5-yl)methyl)-6-(2-propoxypyrimidin-5-yl)pyridazine-3(2H)-one], the 50% inhibitory concentration (IC50) is < 10 µM.

On to `CC(F)(F)COc1ncc(-c2ccc(=O)n(Cc3cncc(F)c3)n2)cn1` [Compound 113, 6-(2-(2,2-difluoropropoxy)pyrimidin-5-yl)-2-((5-fluoropyridin-3-yl)methyl)pyridazine-3(2H)-one], for which the 50% inhibitory concentration (IC50) was < 10 µM.

For `CC(C)c1ncc(Cn2nc(-c3cnc(OCC(F)(F)F)nc3)ccc2=O)s1` [Compound 114, 2-((2-isopropylthiazol-5-yl)methyl)-6-(2-(2,2,2-trifluoroethoxy)pyrimidin-5-yl)pyridazine-3(2H)-one], the 50% inhibitory concentration (IC50) was < 10 µM.

As for `CC(C)Oc1ncc(-c2ccc(=O)n(Cc3cncc(F)c3)n2)cn1` [Compound 115, 2-((5-f1uoropyridin-3-yl)methyl)-6-(2-isopropoxypyrimidin-5-yl)pyridazine-3(2H)-one], the IC50 is < 10 µM.

On to `CCCc1ncc(Cn2nc(-c3cnc(OCC(F)(F)F)nc3)ccc2=O)s1` [Compound 116, 2-((2-propylthiazol-5-yl)methyl)-6-(2-(2,2,2-trifluoroethoxy)pyrimidin-5-yl)pyridazine-3(2H)-one], for which the IC50 is < 10 µM.

Regarding `O=c1ccc(-c2cnc(OCCC(F)(F)F)nc2)nn1Cc1cncc(F)c1` [Compound 117, 2-((5-f1uoropyridin-3-yl)methyl)-6-(2-(3,3,3-trifluoropropoxy)pyrimidin-5-yl)pyridazine-3(2H)-one], the IC50 is < 10 µM.

The values above are taken from patent US11873290B2, “Pyridazinone compounds and uses thereof” (Edgewise Therapeutics, Inc., priority 2018, dated 2024).
